The supplement of paper PMC10307832

Experiments:
Test in all cases: relative viability (nuclei count vs DMSO), 5 days (fraction); higher = more cells survive
ABC-1 = tested on: ABC-1
Outline: (§1)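 Medians of duplicate plates are given as relative viability. That measure is the nuclei count in treated wells divided by the count in vehicle wells. Counts were taken on 4× images of lung cancer cell lines in 1536-well plates, 5 days after pin-tool dosing the day after seeding with one drug alone or a fixed anchor-drug dose plus five library-drug doses (not always all listed) in √10 steps.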

COR-L23 = tested on: COR-L23
Outline: as §1

EPLC-272H = tested on: EPLC-272H
Outline: as §1

HARA = tested on: HARA
Outline: as §1

HCC-15 = tested on: HCC-15
Outline: as §1

HCC-44 = tested on: HCC-44
Outline: as §1

HOP-62 = tested on: HOP-62
Outline: as §1

LC-2-ad = tested on: LC-2-ad
Outline: as §1

LU99A = tested on: LU99A
Outline: as §1

NCI-H1355 = tested on: NCI-H1355
Outline: as §1

NCI-H1651 = tested on: NCI-H1651
Outline: as §1

NCI-H1915 = tested on: NCI-H1915
Outline: as §1

NCI-H1993 = tested on: NCI-H1993
Outline: as §1

NCI-H2023 = tested on: NCI-H2023
Outline: as §1

NCI-H2085 = tested on: NCI-H2085
Outline: as §1

NCI-H2126 = tested on: NCI-H2126
Outline: as §1

NCI-H2347 = tested on: NCI-H2347
Outline: as §1

NCI-H650 = tested on: NCI-H650
Outline: as §1

NCI-H838 = tested on: NCI-H838
Outline: as §1

PC-14 = tested on: PC-14
Outline: as §1

SW 1573 = tested on: SW 1573
Outline: as §1

UMC-11 = tested on: UMC-11
Outline: as §1

## Nc1ccn([C@@H]2O[C@H](CO)[C@@H](O)[C@@H]2O)c(=O)n1 [Cytarabine] + O=C(c1cc(Cc2n[nH]c(=O)c3ccccc23)ccc1F)N1CCN(C(=O)C2CC2)CC1 [Olaparib] (partner 8 µM)
ABC-1; first compound 0.005 µM
  relative viability: 0.7
ABC-1; first compound 0.01581 µM
  relative viability: 0.756
ABC-1; first compound 0.05 µM
  relative viability: 0.991
ABC-1; first compound 0.1581 µM
  relative viability: 0.672
ABC-1; first compound 0.5 µM
  relative viability: 0.61
COR-L23; first compound 0.005 µM
  relative viability: 0.305
COR-L23; first compound 0.01581 µM
  relative viability: 0.309
COR-L23; first compound 0.05 µM
  relative viability: 0.275
COR-L23; first compound 0.1581 µM
  relative viability: 0.131
COR-L23; first compound 0.5 µM
  relative viability: 0.124
EPLC-272H; first compound 0.005 µM
  relative viability: 0.476
EPLC-272H; first compound 0.01581 µM
  relative viability: 0.57
EPLC-272H; first compound 0.05 µM
  relative viability: 0.607
EPLC-272H; first compound 0.1581 µM
  relative viability: 0.244
EPLC-272H; first compound 0.5 µM
  relative viability: 0.123
HARA; first compound 0.005 µM
  relative viability: 0.928
HARA; first compound 0.01581 µM
  relative viability: 0.413
HARA; first compound 0.05 µM
  relative viability: 0.487
HARA; first compound 0.1581 µM
  relative viability: 0.179
HARA; first compound 0.5 µM
  relative viability: 0.162
HCC-15; first compound 0.005 µM
  relative viability: 0.706
HCC-15; first compound 0.01581 µM
  relative viability: 0.655
HCC-15; first compound 0.05 µM
  relative viability: 0.841
HCC-15; first compound 0.1581 µM
  relative viability: 0.649
HCC-15; first compound 0.5 µM
  relative viability: 0.539
HCC-44; first compound 0.005 µM
  relative viability: 1.03
HCC-44; first compound 0.01581 µM
  relative viability: 1.05
HCC-44; first compound 0.05 µM
  relative viability: 0.975
HCC-44; first compound 0.1581 µM
  relative viability: 0.896
HCC-44; first compound 0.5 µM
  relative viability: 0.848
HOP-62; first compound 0.005 µM
  relative viability: 0.436
HOP-62; first compound 0.01581 µM
  relative viability: 0.338
HOP-62; first compound 0.05 µM
  relative viability: 0.253
HOP-62; first compound 0.1581 µM
  relative viability: 0.13
HOP-62; first compound 0.5 µM
  relative viability: 0.0414
LC-2-ad; first compound 0.005 µM
  relative viability: 0.697
LC-2-ad; first compound 0.01581 µM
  relative viability: 0.617
LC-2-ad; first compound 0.05 µM
  relative viability: 0.65
LC-2-ad; first compound 0.1581 µM
  relative viability: 0.58
LC-2-ad; first compound 0.5 µM
  relative viability: 0.474
LU99A; first compound 0.005 µM
  relative viability: 0.307
LU99A; first compound 0.01581 µM
  relative viability: 0.28
LU99A; first compound 0.05 µM
  relative viability: 0.24
LU99A; first compound 0.1581 µM
  relative viability: 0.24
LU99A; first compound 0.5 µM
  relative viability: 0.241
NCI-H1355; first compound 0.005 µM
  relative viability: 0.731
NCI-H1355; first compound 0.01581 µM
  relative viability: 0.673
NCI-H1355; first compound 0.05 µM
  relative viability: 0.57
NCI-H1355; first compound 0.1581 µM
  relative viability: 0.396
NCI-H1355; first compound 0.5 µM
  relative viability: 0.344
NCI-H1651; first compound 0.005 µM
  relative viability: 0.187
NCI-H1651; first compound 0.01581 µM
  relative viability: 0.193
NCI-H1651; first compound 0.05 µM
  relative viability: 0.181
NCI-H1651; first compound 0.1581 µM
  relative viability: 0.199
NCI-H1651; first compound 0.5 µM
  relative viability: 0.168
NCI-H1915; first compound 0.005 µM
  relative viability: 0.288
NCI-H1915; first compound 0.01581 µM
  relative viability: 0.253
NCI-H1915; first compound 0.05 µM
  relative viability: 0.261
NCI-H1915; first compound 0.1581 µM
  relative viability: 0.24
NCI-H1915; first compound 0.5 µM
  relative viability: 0.212
NCI-H1993; first compound 0.005 µM
  relative viability: 1.05
NCI-H1993; first compound 0.01581 µM
  relative viability: 0.933
NCI-H1993; first compound 0.05 µM
  relative viability: 0.998
NCI-H1993; first compound 0.1581 µM
  relative viability: 0.727
NCI-H1993; first compound 0.5 µM
  relative viability: 0.459
NCI-H2023; first compound 0.005 µM
  relative viability: 0.382
NCI-H2023; first compound 0.01581 µM
  relative viability: 0.276
NCI-H2023; first compound 0.05 µM
  relative viability: 0.236
NCI-H2023; first compound 0.1581 µM
  relative viability: 0.0812
NCI-H2023; first compound 0.5 µM
  relative viability: 0.0898
NCI-H2085; first compound 0.005 µM
  relative viability: 0.718
NCI-H2085; first compound 0.01581 µM
  relative viability: 0.727
NCI-H2085; first compound 0.05 µM
  relative viability: 0.802
NCI-H2085; first compound 0.1581 µM
  relative viability: 0.655
NCI-H2085; first compound 0.5 µM
  relative viability: 0.61
NCI-H2126; first compound 0.005 µM
  relative viability: 0.923
NCI-H2126; first compound 0.01581 µM
  relative viability: 0.907
NCI-H2126; first compound 0.05 µM
  relative viability: 0.673
NCI-H2126; first compound 0.1581 µM
  relative viability: 0.534
NCI-H2126; first compound 0.5 µM
  relative viability: 0.515
NCI-H2347; first compound 0.005 µM
  relative viability: 0.59
NCI-H2347; first compound 0.01581 µM
  relative viability: 0.569
NCI-H2347; first compound 0.05 µM
  relative viability: 0.522
NCI-H2347; first compound 0.1581 µM
  relative viability: 0.538
NCI-H2347; first compound 0.5 µM
  relative viability: 0.493
NCI-H650; first compound 0.005 µM
  relative viability: 0.363
NCI-H650; first compound 0.01581 µM
  relative viability: 0.277
NCI-H650; first compound 0.05 µM
  relative viability: 0.169
NCI-H650; first compound 0.1581 µM
  relative viability: 0.14
NCI-H650; first compound 0.5 µM
  relative viability: 0.156
NCI-H838; first compound 0.005 µM
  relative viability: 0.633
NCI-H838; first compound 0.01581 µM
  relative viability: 0.655
NCI-H838; first compound 0.05 µM
  relative viability: 0.643
NCI-H838; first compound 0.1581 µM
  relative viability: 0.278
NCI-H838; first compound 0.5 µM
  relative viability: 0.197
PC-14; first compound 0.005 µM
  relative viability: 0.227
PC-14; first compound 0.01581 µM
  relative viability: 0.252
PC-14; first compound 0.05 µM
  relative viability: 0.241
PC-14; first compound 0.1581 µM
  relative viability: 0.105
PC-14; first compound 0.5 µM
  relative viability: 0.0848
SW 1573; first compound 0.005 µM
  relative viability: 0.513
SW 1573; first compound 0.01581 µM
  relative viability: 0.329
SW 1573; first compound 0.05 µM
  relative viability: 0.384
SW 1573; first compound 0.1581 µM
  relative viability: 0.166
SW 1573; first compound 0.5 µM
  relative viability: 0.108
UMC-11; first compound 0.005 µM
  relative viability: 0.345
UMC-11; first compound 0.01581 µM
  relative viability: 0.329
UMC-11; first compound 0.05 µM
  relative viability: 0.302
UMC-11; first compound 0.1581 µM
  relative viability: 0.248
UMC-11; first compound 0.5 µM
  relative viability: 0.218
